Experimental findings from US8772282B2, “Tetrahydropyrrolothiazine compounds” (Eli Lilly and Company, priority 2012, dated 2014) are described below.

One test addresses human BACE1 (1-460):Fc (Homo sapiens (Human), UniProt P56817). Kind of test: BACE1 FRET Assay. The class given is biochemical. Particulars: Mean ± SEM; purified recombinant huBACE1:Fc, FRET substrate, pH 4.6.
Test [1] has as its target native endogenous human BACE1 (Homo sapiens (Human), UniProt P56817). Kind of test: HEK293Swe Whole Cell Assay (Abeta lowering, ELISA). The following applies: HEK293/APP751sw cells, Mean ± SEM. The format is cell-based.
A further test deals with beta-secretase (Mus musculus (Mouse), UniProt P56818). Kind of test: In Vivo Inhibition of Beta-Secretase in PDAPP mice.
Chain of beta-secretase (P56818 46-501): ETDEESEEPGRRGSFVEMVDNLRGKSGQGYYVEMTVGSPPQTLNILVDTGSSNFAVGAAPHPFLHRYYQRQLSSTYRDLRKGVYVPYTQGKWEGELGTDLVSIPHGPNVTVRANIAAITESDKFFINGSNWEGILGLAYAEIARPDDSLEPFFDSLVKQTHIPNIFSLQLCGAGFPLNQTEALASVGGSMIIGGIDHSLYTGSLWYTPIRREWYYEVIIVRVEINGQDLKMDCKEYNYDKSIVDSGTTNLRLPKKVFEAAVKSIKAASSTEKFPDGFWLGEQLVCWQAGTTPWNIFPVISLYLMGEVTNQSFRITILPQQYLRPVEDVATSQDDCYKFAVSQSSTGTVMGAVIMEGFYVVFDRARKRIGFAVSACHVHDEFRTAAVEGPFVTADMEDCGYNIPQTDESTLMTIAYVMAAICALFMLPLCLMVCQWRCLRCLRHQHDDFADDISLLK
Test [2] addresses native, endogenous murine BACE1 (Mus musculus (Mouse), UniProt P56818). Kind of test: PDAPP Primary Neuronal Assay (Abeta lowering, ELISA). The class given is cell-based. The following applies: primary cortical neurons from PDAPP embryos, 24 h, Mean ± SEM. Background: An ELISA detects its analyte on a solid surface through an enzyme-linked reagent.
The mark [3] stands for this setting: Abeta 1-40 in conditioned media, read-out: HEK 293 Swe A-beta (1-40) ELISA IC50.
[4] abbreviates: 10 mg/kg oral dose, 3 hours after administration, CSF.
Setting [5] is: 10 mg/kg oral dose, 3 hours after administration, compared to vehicle-treated mice.
Setting [6] is: 10 mg/kg oral dose, 3 hours, young female PDAPP mice, compared to vehicle-treated mice.
Where [7] appears, read: Abeta 1-40, read-out: PDAPP Neuron A-beta (1-40) ELISA IC50.
Setting [8] is: Abeta 1-42, read-out: PDAPP Neuron A-beta (1-42) ELISA IC50.
Setting [9] is: 30 mg/kg oral dose, 3 hours after administration, compared to vehicle-treated mice.

Molecules are shown by their SMILES. Where a name gives a salt, the structure may show the parent alone. Read-outs that look alike come from different tables or passages of the source.

The term IC50 denotes the concentration needed to halve the response being measured.

Chain of native endogenous human BACE1 (P56817 46-501): as the sequence (P56818 46-501) above, with S6P, I162V, I165L, T180S, A182V, V340I, A393L, H443Q counted along it
Chain of human BACE1 (1-460):Fc (P56817 22-460): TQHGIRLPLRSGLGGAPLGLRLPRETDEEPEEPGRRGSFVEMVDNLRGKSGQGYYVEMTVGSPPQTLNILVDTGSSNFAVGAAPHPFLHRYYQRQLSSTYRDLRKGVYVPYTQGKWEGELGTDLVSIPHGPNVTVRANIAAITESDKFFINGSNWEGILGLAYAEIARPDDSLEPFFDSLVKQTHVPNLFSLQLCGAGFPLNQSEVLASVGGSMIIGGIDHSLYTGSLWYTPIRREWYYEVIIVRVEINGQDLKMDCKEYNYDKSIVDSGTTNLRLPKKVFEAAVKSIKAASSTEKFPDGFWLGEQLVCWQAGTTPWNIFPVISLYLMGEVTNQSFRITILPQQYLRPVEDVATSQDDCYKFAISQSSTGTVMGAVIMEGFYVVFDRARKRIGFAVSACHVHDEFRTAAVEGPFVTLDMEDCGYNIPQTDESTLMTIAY
Chain of native, endogenous murine BACE1 (P56818 46-501): as the sequence (P56818 46-501) above

On to `Cl.NC1=N[C@@]2(c3ccccc3)CN(c3ncc(F)cn3)C[C@H]2CS1` [Example 1, (4aR,7aS)-6-(5-Fluoropyrimidin-2-yl)-7a-phenyl-4,4a,5,7-tetrahydropyrrolo[3,4-d][1,3]thiazin-2-amine hydrochloride], for which, on human BACE1 (1-460):Fc, the concentration for half-maximal inhibition (IC50) was 64.4 nM. In addition, the half-maximal inhibitory concentration (IC50) in test [1] (setting [3]) came to 233 nM. Moreover, on beta-secretase (setting [4]), the “CSF Abeta 1-x levels reduced” value was “approximately 80%” and the “Reduction of CSF sAPPbeta” value was found to be 22%. Further, on beta-secretase (setting [5]), the “Abeta 1-x peptide levels reduced in brain cortex” value is listed as “approximately 62%” and the “Abeta 1-x peptide levels reduced in brain hippocampus” value is “approximately 51%”. Besides, on beta-secretase (setting [6]), the “C99 levels reduced in brain cortex” value was about 63%, the “C99 levels reduced in brain hippocampus” value is about 58%, the “sAPPb levels reduced in brain cortex” value was about 34% and the “sAPPb levels reduced in brain hippocampus” value was about 37%. For the same molecule, in test [2] (setting [7]), the IC50 was 116 nM. Further, the 50% inhibitory concentration (IC50) in test [2] (setting [8]) amounted to 103 nM.

For `NC1=N[C@@]2(c3ccc(F)s3)CN(c3ncccn3)C[C@H]2CS1` [Example 30, [(4aR,7aR)-7a-(5-Fluorothiophen-2-yl)-6-(pyrimidin-2-yl)-4,4a,5,6,7,7a-hexahydropyrrolo[3,4-d][1,3]thiazin-2-amine hydrochloride], the IC50 on human BACE1 (1-460):Fc was found to be 166 nM.

For `NC1=N[C@@]2(c3ccc(F)s3)CN(c3ncc(F)cn3)C[C@H]2CS1` [Example 32, [(4aR,7aR)-6-(5-Fluoropyrimidin-2-yl)-7a-(5-fluorothiophen-2-yl)-4,4a,5,6,7,7a-hexahydropyrrolo[3,4-d][1,3]thiazin-2-amine hydrochloride], the half-inhibitory concentration (IC50) was 91.2 nM on human BACE1 (1-460):Fc; 345 nM in test [1] (setting [3]); 356 nM in test [1] (Abeta 1-42 in conditioned media, read-out: HEK 293 Swe A-beta (1-42) ELISA IC50); 378 nM in test [2] (setting [7]); 245 nM in test [2] (setting [8]).

Turning to `Cl.N#Cc1ccc([C@]23CN(c4ncc(F)cn4)C[C@H]2CSC(N)=N3)s1` [Example 31, 5-[(4aR,7aR)-2-Amino-6-(5-fluoropyrimidin-2-yl)-4a,5,6,7-tetrahydropyrrolo[3,4-d][1,3]thiazin-7a(4H)-yl]thiophene-2-carbonitrile hydrochloride], at beta-secretase (setting [5]), the “Abeta 1-x peptide levels reduced in brain cortex” value is reported as “approximately 23%” and the “Abeta 1-x peptide levels reduced in brain hippocampus” value is given as “approximately 18%”. For the same molecule, at beta-secretase (setting [9]), the “Abeta 1-x peptide levels reduced in brain cortex” value was about 63% and the “Abeta 1-x peptide levels reduced in brain hippocampus” value was about 51%.
